The target in one test is T1, p70 (NAMPT) (Homo sapiens, UniProt P43490).
T1 construct: endogenous in cells; host or cells: H2122 lung cancer cells
The experiment in a line: binding competition for photo-crosslinking of P7C3-S326 to p70 in H2122 cells. The following applies: 0.3 μM P7C3-S326 plus 5 μM competitor, p70 band intensity, P7C3-S326 alone compared with plus competitor, vehicle 1.0. The procedure:
Cultured cells were co-exposed to P7C3-S326 (0.3 uM) and the individual P7C3 variants (5 uM), exposed to UV light, lysed, clicked to a fluorescent dye and run on SDS gels (FIG. 11).
P7C3-S326 was diluted to 0.3 μM in culture medium to treat H2122 cells. After incubation at 37° C. for 2 hours, H2122 cells were irradiated for 15 minutes under 306 nm ultraviolet light in a Stratalinker 2400 (Stratagene). Cells were then harvested by dissolving in 1% SDS lysis buffer 50 mM HEPES, pH 8.0, 2 mM MgCl2, 10 mM KCl, 1% SDS, 50 units/ml of Benzonase (Sigma), supplemented with Sigmafast protease inhibitor (Sigma).
The reaction was incubated at room temperature with constant agitation at 1,000 rpm on a thermomixer (Eppendorf) for 1 hour. Samples were then mixed with SDS sample loading buffer and loaded on an 8% SDS-PAGE gel, separated, and imaged using a Typhoon imager (filter settings: excitation 533 nm, emission 555 nm, and high sensitivity).
H2122 cells were incubated with the P7C3-S326 (0.3 μM) in the absence or presence of P7C3 analogs for 2 hours following by UV crosslinking. […] The samples were run on SDS-PAGE gels scanned using a Typhoon Imager. The p70 band intensity was analyzed and quantified by Image J, and the relative intensity in each assay was normalized to that of the DMSO control.

The subject of test [1] is hippocampal neurogenesis (Dentate Gyrus). The experiment in a line: in vivo neurogenesis assay (BrdU+ cells in dentate gyrus). Also on record: species or system mice. Particulars: living mice; vehicle (DMSO) 7.3. An excerpt: The screen was simple in concept. With help from chemists in the Department of Biochemistry at UTSWMC, we selected 1,000 druglike chemicals from the 250,000 compounds in our high throughput screening center. The compounds were selected to preserve representative chemical diversity of the entire library. They were further selected to enhance the representation of chiral molecules, and to avoid untoward chemical properties such as reactive moieties. The 1,000 molecules were randomly pooled into groups of ten, and each pool was administered directly into the left ventricle of two adult mice. Intracranial delivery was facilitated by stereotactic positioning of a canula fed directly by an Alzet mini-pump containing the mixture of ten chemicals. The drug mixture was administered over a week-long period at concentrations anticipated to deliver mid-nanomolar levels of the ten test compounds. Daily injections of the thymidine analog, bromodeoxyuridine (BrdU), were coadministered in order to monitor the formation of new hippocampal nerve cells. Following compound administration, animals were sacrificed such that brain tissue could be recovered, sectioned and stained with antibodies to BrdU. […]

T1 sequence (P43490 whole entry): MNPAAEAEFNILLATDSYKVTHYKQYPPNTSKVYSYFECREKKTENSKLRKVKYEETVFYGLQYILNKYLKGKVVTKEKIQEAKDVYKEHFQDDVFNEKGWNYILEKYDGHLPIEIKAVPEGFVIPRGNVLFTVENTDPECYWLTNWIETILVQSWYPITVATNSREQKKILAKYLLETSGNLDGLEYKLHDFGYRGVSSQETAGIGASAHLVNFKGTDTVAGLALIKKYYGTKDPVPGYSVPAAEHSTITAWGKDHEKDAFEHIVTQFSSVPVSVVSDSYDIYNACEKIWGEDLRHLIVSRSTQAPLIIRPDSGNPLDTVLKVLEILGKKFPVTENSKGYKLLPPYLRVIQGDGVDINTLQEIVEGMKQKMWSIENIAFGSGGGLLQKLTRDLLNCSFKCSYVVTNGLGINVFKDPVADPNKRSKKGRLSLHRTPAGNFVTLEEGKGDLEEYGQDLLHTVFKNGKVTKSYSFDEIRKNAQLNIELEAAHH

With `O=C(Cn1c2ccc(Br)cc2c2cc(Br)ccc21)Nc1ccccc1` [S112], the Binding competition on p70 (NAMPT) was 1.2.
`[N-]=[N+]=Nc1ccc(NCC(O)Cn2c3ccc(Br)cc3c3cc(Br)ccc32)cc1` (stereo not shown) [S48]: the Binding competition at p70 (NAMPT) was found to be 3.4. Further, the “Neurogenesis # BrdU+ Cells (X10E06)/mm3 Dentate Gyrus” value (“Neurogenesis # BrdU+ Cells” below) in test [1] is listed as 14.5 (X10E06)/mm3.
As for `COc1cccc(N(CC(F)Cn2c3ccc(Br)cc3c3cc(Br)ccc32)S(=O)(=O)C(F)(F)F)c1` (stereo not shown) [S241], at p70 (NAMPT), the Binding competition is given as 1.3. For the same compound, in test [1], the “Neurogenesis # BrdU+ Cells” value is 15.5 (X10E06)/mm3.
For `CNCCC=C1c2ccccc2CCc2ccccc21.Cl` [S89, Nortriptyline, reference compound], in that order: 1.3 and 8.7 (X10E06)/mm3.
For the compound `CN(C)C[C@H](O)CN1c2ccccc2CCc2ccccc21` [S181], the Binding competition at p70 (NAMPT) turned out to be 0.9.
`COc1ccc(OCC(O)Cn2c3ccc(Br)cc3c3cc(Br)ccc32)cc1` (stereo not shown) [S49]: the “Neurogenesis # BrdU+ Cells” value in test [1] was 12.0 (X10E06)/mm3.
Regarding `CCOC(=O)c1cc2c(cn1)[nH]c1ccc(Br)cc12` [S205], the Binding competition on p70 (NAMPT) came out at 2.5. Further, the “Neurogenesis # BrdU+ Cells” value in test [1] is reported as 14.6 (X10E06)/mm3.
Consider `COCC(O)Cn1c2ccc(Br)cc2c2cc(Br)ccc21` (stereo not shown) [S19], for which the Binding competition on p70 (NAMPT) was determined as 2.9. Further, the “Neurogenesis # BrdU+ Cells” value in test [1] is 10.5 (X10E06)/mm3.
For `N#Cc1cc2c(cn1)[nH]c1ccc(Br)cc12` [S221], in that order: 2.9 and 14.8 (X10E06)/mm3.
For the compound `Cc1ccc2[nH]c3ccc(C)cc3c2c1` [S237], the Binding competition at p70 (NAMPT) is 1.5. In test [1], the “Neurogenesis # BrdU+ Cells” value is 11.8 (X10E06)/mm3.
On to `OC(CNc1ccncc1)Cn1c2ccc(Br)cc2c2cc(Br)ccc21` (stereo not shown) [S45], for which the Binding competition at p70 (NAMPT) turned out to be 1.2. Moreover, in test [1], the “Neurogenesis # BrdU+ Cells” value is listed as 8.0 (X10E06)/mm3.
Take `C#Cc1ccc2c(c1)c1cc(C#C)ccc1n2CC(O)CNc1cccc(OC)c1` (stereo not shown) [S64]: the “Neurogenesis # BrdU+ Cells” value in test [1] is recorded as 8.6 (X10E06)/mm3.
Take `CC(C(=O)O)n1c2ccc(Br)cc2c2cc(Br)ccc21` (stereo not shown) [S211]: the Binding competition at p70 (NAMPT) was 1.2. Further, the “Neurogenesis # BrdU+ Cells” value in test [1] is recorded as 11.5 (X10E06)/mm3.
The corresponding values for `COc1cccc(NCC(O)Cn2c3ccc(C)cc3c3cc(C)ccc32)c1` (stereo not shown) [S2] are 3.7 and 8.1 (X10E06)/mm3.
The corresponding values for `Cc1ccc2c(c1)c1cc(Br)ccc1n2CC(=O)O` [S240] are 1.7 and 14.3 (X10E06)/mm3.
The corresponding values for `OC(CNc1cccc2ccccc12)Cn1c(-c2ccccc2)cc2ccccc21` (stereo not shown) [S185] are 1.5 and 12.6 (X10E06)/mm3.
For the compound `OCCn1c2ccc(Br)cc2c2cc(Br)ccc21` [S171], the Binding competition on p70 (NAMPT) is recorded as 3.2. Besides, the “Neurogenesis # BrdU+ Cells” value in test [1] is reported as 13.1 (X10E06)/mm3.
The corresponding values for `N[C@@H](Cc1c[nH]c2ccccc12)C(=O)O` [S248] are 1.3 and 10.1 (X10E06)/mm3.
For `CN(C)CCCN1c2ccccc2CCc2ccccc21.Cl` [S88, Imipramine, reference compound], the “Neurogenesis # BrdU+ Cells” value in test [1] was 7.8 (X10E06)/mm3.
`COc1cccc(N(/C=C/Cn2c3ccc(Br)cc3c3cc(Br)ccc32)S(=O)(=O)C(F)(F)F)c1` [S179]: the Binding competition at p70 (NAMPT) turned out to be 0.9. In addition, the “Neurogenesis # BrdU+ Cells” value in test [1] is listed as 17.3 (X10E06)/mm3.
Consider `O=C(O)c1cc2c3ccccc3n(CC(O)COc3ccccc3)c2cn1` (stereo not shown) [S172], for which, on p70 (NAMPT), the Binding competition was determined as 1.1. Besides, the “Neurogenesis # BrdU+ Cells” value in test [1] was 14.2 (X10E06)/mm3.
For `FC(COc1ccccc1)Cn1c2c(c3cc(Br)ccc31)CNCC2` (stereo not shown) [S108], in that order: 1.0 and 7.6 (X10E06)/mm3.
As to `O=C(O)Cn1c2ccc(Br)cc2c2cc(Br)ccc21` [S165], the Binding competition on p70 (NAMPT) stood at 1.3.
Turning to `N=c1ccccn1CC(O)Cn1c2ccc(Br)cc2c2cc(Br)ccc21` (stereo not shown) [S5], at p70 (NAMPT), the Binding competition is given as 1.4. Also, the “Neurogenesis # BrdU+ Cells” value in test [1] is listed as 12.2 (X10E06)/mm3.
Take `COc1cccc(N(CC(O)Cn2c3ccc(Br)cc3c3cc(Br)ccc32)S(=O)(=O)C(F)(F)F)c1` (stereo not shown) [S244]: at p70 (NAMPT), the Binding competition was found to be 1.1. In test [1], the “Neurogenesis # BrdU+ Cells” value is listed as 11.6 (X10E06)/mm3.
The corresponding values for `OC(CN1c2ccccc2CCc2ccccc21)CN1c2ccccc2CCc2ccccc21` [S170] are 1.5 and 11.2 (X10E06)/mm3.
Turning to `OC(CCc1ccccc1)Cn1c2ccc(Br)cc2c2cc(Br)ccc21` (stereo not shown) [S21], at p70 (NAMPT), the Binding competition was 2.3. Also, the “Neurogenesis # BrdU+ Cells” value in test [1] is 8.8 (X10E06)/mm3.
The corresponding values for `COc1cccc(SCC(O)Cn2c3ccc(Br)cc3c3cc(Br)ccc32)c1` (stereo not shown) [S77] are 3.3 and 12.0 (X10E06)/mm3.
As to `COc1cccc(NCC(O)Cn2c3ccc(Br)cc3c3cc(Br)ccc32)n1` (stereo not shown) [S188], the Binding competition on p70 (NAMPT) was found to be 3.1. Besides, in test [1], the “Neurogenesis # BrdU+ Cells” value was 13.1 (X10E06)/mm3.
On to `Brc1ccc2c(c1)c1cc(Br)ccc1n2CCNc1ccccc1` [S115], for which the Binding competition at p70 (NAMPT) stood at 3.7.
As for `COc1cccc(N(C)CC(O)Cn2c3ccc(Br)cc3c3cc(Br)ccc32)c1` (stereo not shown) [S1], the “Neurogenesis # BrdU+ Cells” value in test [1] is on record as 10.8 (X10E06)/mm3.
For the compound `CC(NC(C)(C)C)C(=O)c1cccc(Cl)c1` (stereo not shown) [S125, Wellbutrin, reference compound], the Binding competition on p70 (NAMPT) amounted to 1.1.
Regarding `FC(CNc1ccccc1)Cn1c2ccc(Br)cc2c2cc(Br)ccc21` (stereo not shown) [S55], the “Neurogenesis # BrdU+ Cells” value in test [1] was 13.8 (X10E06)/mm3.
For the compound `OC(CNc1ccccc1)Cn1c2ccc(C(F)(F)F)cc2c2cc(C(F)(F)F)ccc21` (stereo not shown) [S75], on p70 (NAMPT), the Binding competition is listed as 2.5.
Still for that read-out and setting: next, `Cn1c2ccc(Br)cc2c2cc(Br)ccc21` [S163]: 2.5.
With `OC(CNc1cccc2ccccc12)Cn1c2ccccc2c2ccccc21` (stereo not shown) [S180], on p70 (NAMPT), the Binding competition came out at 3.2.
Same read-out and setting: next, `CC(C)(C)OC(=O)CCOCCOCCOCCOc1ccc(S(=O)(=O)CC(O)Cn2c3ccc(Br)cc3c3cc(Br)ccc32)cc1` (stereo not shown) [S130]: 2.9.
On to `COc1ccc(OCC2(Cn3c4ccc(Br)cc4c4cc(Br)ccc43)NN2)cc1` [S57], for which the “Neurogenesis # BrdU+ Cells” value in test [1] is listed as 11.9 (X10E06)/mm3.
Consider `OC(CNC1CCCC1)Cn1c2ccc(Br)cc2c2cc(Br)ccc21` (stereo not shown) [S176], for which the Binding competition on p70 (NAMPT) is 4.1.
The same measure, in the same setting: next, `Brc1ccc2[nH]c3ccc(Br)cc3c2c1` [S162]: 2.3.
For `OC(CCn1c2ccc(Br)cc2c2cc(Br)ccc21)CNc1ccccc1` (stereo not shown) [S26], the “Neurogenesis # BrdU+ Cells” value in test [1] is listed as 7.5 (X10E06)/mm3.
`Fc1ccc([C@@H]2CCNC[C@H]2COc2ccc3c(c2)OCO3)cc1` [S120, Paxil, reference compound]: the Binding competition on p70 (NAMPT) is on record as 1.3.
As for `O=C(COc1cccc(S(=O)(=O)CC(O)Cn2c3ccc(Br)cc3c3cc(Br)ccc32)c1)NCc1ccccc1` (stereo not shown) [S102], the “Neurogenesis # BrdU+ Cells” value in test [1] is recorded as 8.9 (X10E06)/mm3.
Same read-out and setting: next, `OC(Cn1c2ccccc2c2ccccc21)Cn1c2ccc(Br)cc2c2cc(Br)ccc21` (stereo not shown) [S35]: 8.6 (X10E06)/mm3.
